Reference: PMC4805082, “Seizure control by decanoic acid through direct AMPA receptor inhibition” (Brain, 2015)
Like-named read-outs stand apart in the source and are kept apart here.

Key:
AMPA receptor GluA1 = biological target: T1, AMPA receptor GluA1 (Homo sapiens, UniProt P42261); experiment: Two-electrode voltage clamp, homomeric GluA1 AMPA receptor expressed in Xenopus oocytes; type: cell-based
T1 construct: expressed in transfected cells; host or cells: Xenopus laevis oocytes injected with cRNA
Method: The AMPA receptor (flip isoform) cDNAs inserted in a SP6 polymerase expression vector (pSP6T) were a generous gift from Prof. Ralf Schoepfer (NPP, UCL). RNA was transcribed in vitro from MluI linearized transcripts using the SP6 Promega RiboMAX® RNA synthesis kit according to manufacturer’s protocols except for the addition of 0.75 mM capping nucleotide m^7G(5’)ppp(5’)G (Promega) and 1.6 mM GTP. cRNA concentrations and integrity were estimated by the intensity of fluorescence bands in RNA denaturating gels. AMPA receptor cRNAs were mixed in a nominal 1:1 ratio and ∼5 ng was injected per oocyte.
(§1) Xenopus laevis oocytes were purchased from the European Xenopus Resource Centre, University of Portsmouth. Stage V to VI oocytes were mechanically dissected and then subjected to gentle shaking for ∼30–50 min at room temperature with modified Barth’s solution (in mM): 88 NaCl, 1 KCl, 2.4 NaHCO3, 0.82 MgCl2, 0.77 CaCl2, 15 Tris-Cl, adjusted to pH 7.4 with NaOH (Sigma-Aldrich), supplemented with 50 IU/ml penicillin and 50 µg/ml streptomycin (Invitrogen) and 50 µg/ml tetracycline (Sigma-Aldrich) and 1% collagenase (type 1A). Healthy oocytes were manually defolliculated and the injections of cRNA for homomeric subunits alone (GluA1), or heteromeric mixtures of two subunits together (GluA1/GluA2 or GluA2/GluA3) were made using an automated Drummond Nanoinject II injector. The oocytes were then incubated at 17°C in modified Barth’s solution for at least 48 h before use in electrophysiological recordings.
Experiments were performed at room temperature (∼21–23°C). An oocyte was placed in a recording chamber (0.3–0.5 ml volume) and perfused with ND96 solution (96 mM NaCl, 2 mM KCl, 1.8 mM CaCI2, 1 mM MgCl2, 5 mM HEPES, with pH adjusted to 7.5). Current and voltage electrodes were filled with 300 mM KCl and made from thin-walled borosilicate glass (GC150TF-7.5, Harvard Apparatus) using a PC-10 electrode puller (Narashige Instruments) and had resistances of 0.5–2 MΩ. Oocytes were voltage-clamped to a holding potential of −50 mV or −60 mV using a Turbo TEC-03 amplifier (npi electronics). […]

AMPA receptor GluA2/3 = biological target: T2, AMPA receptor GluA2/3 (Homo sapiens, UniProt P42262+P42263); experiment: Two-electrode voltage clamp, AMPA receptor GluA2/3 expressed in Xenopus oocytes; type: cell-based
T2 construct: expressed in transfected cells; host or cells: Xenopus laevis oocytes injected with cRNA (1:1 mix)
Method: The AMPA receptor (flip isoform) cDNAs inserted in a SP6 polymerase expression vector (pSP6T) were a generous gift from Prof. Ralf Schoepfer (NPP, UCL). […] AMPA receptor cRNAs were mixed in a nominal 1:1 ratio and ∼5 ng was injected per oocyte.
as §1
Experiments were performed at room temperature (∼21–23°C). […] Current and voltage electrodes were filled with 300 mM KCl and made from thin-walled borosilicate glass (GC150TF-7.5, Harvard Apparatus) using a PC-10 electrode puller (Narashige Instruments) and had resistances of 0.5–2 MΩ. […] Compounds were dissolved in distilled water or DMSO and dissolved in bathing solution to achieve their final concentrations during experiments, and were applied under gravity flow during the experiment by using a multi-valve perfusion system (VC3-8C, ALA Scientific Instruments). The bath solutions were perfused at a rate of 10 ml/min. […] Data acquisition was performed using the Windows PC-based program, WinEDR v3.0.6 (John Dempster, University of Strathclyde, UK).
Statistical analysis was performed using ANOVA with Tukey post hoc test, paired t-test or unpaired t-test.

T2 sequence (P42262 22-883 isoform P42262-2 limits assumed): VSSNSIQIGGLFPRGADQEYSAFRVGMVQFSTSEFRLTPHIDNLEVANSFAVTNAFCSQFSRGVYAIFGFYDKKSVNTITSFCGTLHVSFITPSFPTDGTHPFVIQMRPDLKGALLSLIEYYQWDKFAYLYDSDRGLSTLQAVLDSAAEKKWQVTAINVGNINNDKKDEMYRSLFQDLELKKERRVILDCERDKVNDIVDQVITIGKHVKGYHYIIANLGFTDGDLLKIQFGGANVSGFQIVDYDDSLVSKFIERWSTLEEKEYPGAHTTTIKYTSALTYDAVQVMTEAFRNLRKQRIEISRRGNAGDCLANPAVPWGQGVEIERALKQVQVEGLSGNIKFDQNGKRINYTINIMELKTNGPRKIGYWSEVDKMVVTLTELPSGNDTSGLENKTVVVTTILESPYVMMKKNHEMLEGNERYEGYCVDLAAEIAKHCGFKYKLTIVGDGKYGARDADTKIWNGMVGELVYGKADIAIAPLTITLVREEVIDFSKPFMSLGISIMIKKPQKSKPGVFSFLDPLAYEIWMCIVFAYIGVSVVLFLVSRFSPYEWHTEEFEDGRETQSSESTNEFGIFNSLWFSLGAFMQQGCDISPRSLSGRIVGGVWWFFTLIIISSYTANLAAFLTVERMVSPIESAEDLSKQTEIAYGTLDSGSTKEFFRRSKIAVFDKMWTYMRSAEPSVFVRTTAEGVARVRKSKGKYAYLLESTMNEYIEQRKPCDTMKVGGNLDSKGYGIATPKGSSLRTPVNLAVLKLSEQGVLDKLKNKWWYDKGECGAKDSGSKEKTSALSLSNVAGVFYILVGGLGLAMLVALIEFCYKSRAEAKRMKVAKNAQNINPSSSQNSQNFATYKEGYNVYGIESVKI
T2 sequence (P42263 29-894 isoform P42263-2 limits assumed): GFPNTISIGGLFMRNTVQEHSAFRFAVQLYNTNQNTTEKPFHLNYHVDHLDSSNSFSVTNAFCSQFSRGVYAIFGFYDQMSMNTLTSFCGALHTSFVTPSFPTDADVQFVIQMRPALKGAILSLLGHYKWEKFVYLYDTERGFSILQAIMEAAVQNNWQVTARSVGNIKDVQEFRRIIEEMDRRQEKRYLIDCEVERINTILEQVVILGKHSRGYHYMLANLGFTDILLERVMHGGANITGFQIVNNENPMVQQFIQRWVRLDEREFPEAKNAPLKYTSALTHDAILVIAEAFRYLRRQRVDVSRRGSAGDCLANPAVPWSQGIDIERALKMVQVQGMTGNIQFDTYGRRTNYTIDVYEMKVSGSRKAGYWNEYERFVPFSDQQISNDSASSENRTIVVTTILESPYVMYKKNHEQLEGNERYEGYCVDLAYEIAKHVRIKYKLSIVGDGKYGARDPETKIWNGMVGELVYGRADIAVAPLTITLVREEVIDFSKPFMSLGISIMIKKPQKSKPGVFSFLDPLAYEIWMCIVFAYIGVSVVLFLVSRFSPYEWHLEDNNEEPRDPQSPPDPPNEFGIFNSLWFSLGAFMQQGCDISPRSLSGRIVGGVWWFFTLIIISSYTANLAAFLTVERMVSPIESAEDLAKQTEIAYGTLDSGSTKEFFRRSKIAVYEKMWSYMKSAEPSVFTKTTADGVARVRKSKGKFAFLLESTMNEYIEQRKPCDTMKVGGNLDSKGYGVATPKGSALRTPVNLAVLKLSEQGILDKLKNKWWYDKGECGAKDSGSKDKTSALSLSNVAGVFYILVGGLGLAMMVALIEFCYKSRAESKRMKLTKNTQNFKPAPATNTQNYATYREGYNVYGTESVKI
T1 sequence (P42261 19-906 isoform P42261-2 limits assumed): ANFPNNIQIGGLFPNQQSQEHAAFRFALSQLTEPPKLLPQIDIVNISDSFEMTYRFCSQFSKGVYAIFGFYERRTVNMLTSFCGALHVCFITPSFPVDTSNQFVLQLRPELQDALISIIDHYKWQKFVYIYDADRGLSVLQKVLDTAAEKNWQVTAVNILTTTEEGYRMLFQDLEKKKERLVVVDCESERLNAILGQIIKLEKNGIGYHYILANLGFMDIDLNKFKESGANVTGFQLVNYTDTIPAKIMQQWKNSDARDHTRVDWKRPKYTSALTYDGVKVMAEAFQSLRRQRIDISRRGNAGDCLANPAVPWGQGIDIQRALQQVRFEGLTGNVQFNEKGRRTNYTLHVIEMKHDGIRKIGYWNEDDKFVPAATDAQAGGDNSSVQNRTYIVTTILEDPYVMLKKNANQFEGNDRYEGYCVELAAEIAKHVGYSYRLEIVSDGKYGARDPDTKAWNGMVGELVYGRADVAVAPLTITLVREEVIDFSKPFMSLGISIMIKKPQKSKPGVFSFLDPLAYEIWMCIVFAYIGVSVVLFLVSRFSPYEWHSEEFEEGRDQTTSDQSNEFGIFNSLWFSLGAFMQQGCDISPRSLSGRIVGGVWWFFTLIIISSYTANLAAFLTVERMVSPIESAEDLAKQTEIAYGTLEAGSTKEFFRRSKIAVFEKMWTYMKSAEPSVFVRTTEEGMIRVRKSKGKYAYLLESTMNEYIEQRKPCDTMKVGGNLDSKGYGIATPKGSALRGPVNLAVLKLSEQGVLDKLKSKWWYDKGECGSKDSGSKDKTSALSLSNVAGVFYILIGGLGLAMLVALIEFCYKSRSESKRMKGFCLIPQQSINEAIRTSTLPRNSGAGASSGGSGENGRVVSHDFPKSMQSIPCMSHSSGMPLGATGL

- IC50 (AMPA receptor GluA1): 2090 µM
- inhibition at 100 µM (AMPA receptor GluA2/3; 100 µM, read-out: inhibition of AMPA-mediated currents): ~20%
- decrease in AMPA receptor responses (AMPA receptor GluA2/3; 1 mM): 60–70%
- AMPA receptor current following activation with AMPA (AMPA receptor GluA2/3; agonist AMPA 30 µM, n = 8): 16.7 ± 2.7 % of AMPA alone
- AMPA receptor currents (AMPA receptor GluA2/3; compound 1 mM, currents elicited by 100 µM L-glutamate, −50 mV): 32.4 ± 2.0 % of control
- IC50 (AMPA receptor GluA2/3; glutamate 100 µM, membrane potential −40 mV, n = 6, read-out: IC50): 430 ± 90 µM
- IC50 (AMPA receptor GluA2/3; glutamate 100 µM, membrane potential −80 mV, n = 6, read-out: IC50): 1110 ± 50 µM
- IC50 (AMPA receptor GluA2/3; glutamate 100 µM, read-out: IC50, inhibition of glutamate-induced AMPA receptor current): 520 ± 20 µM
- IC50 (AMPA receptor GluA2/3; glutamate 1 mM, n = 10, read-out: IC50, inhibition of glutamate-induced AMPA receptor current): 540 ± 30 µM
SMILES: CCCCCCCCCC(=O)O [decanoic acid]
